Patent publication US10905761B2, “Use of a lipopeptide or lipoprotein as an adjuvant in therapeutic or prophylactic vaccinations” (HELMHOLTZ-ZENTRUM FUER INFEKTIONSFORSCHUNG GMBH, priority 2002, dated 2021)
“Also recorded” adds a separate entry of the source. No end group written: not given here.

Assays:
[1] = test system: primary dendritic cells from the bone marrow of BALB/c mice; experiment: In vitro stimulation of primary dendritic cells; […]; format: cell-based
[2] = test system: BALB/c (H-2d) mice; experiment: Humoral responses after immunization by various routes with MALP-2 as adjuvant (serum β-galactosidase-specific antibody ELISA, Example 2); format: in vivo; details: day 28
Method: Mice were immunized by subcutaneous (s.c.), intraperitoneal (i.p.), intradermal (i.d.) and intranasal (i.n.) routes with either pure β-galactosidase (40 μg) or β-galactosidase mixed with MALP-2 (0.5 μg) on days 0, 7 and 14. On day 28 after the primary immunization, serum samples were removed and the titer of β-galactosidase-specific antibodies was determined by means of an ELISA. The results are shown as reciprocal log2 of the geometric mean of the endpoint titer. As a control, we included a group in which the animals were immunized by the route with β-galactosidase using aluminum hydroxide as adjuvant.
Mice were immunized by the intraperitoneal (i.p.) and intranasal (i.n.) route with either pure β-galactosidase (40 μg/dose) or β-galactosidase mixed with MALP-2 (1 μg/dose) on days 0, 7 and 14. On day 28 after the primary immunization, serum samples were taken and the titer of β-galactosidase-specific antibodies was determined by means of an ELISA. The results are shown as absorbances (OD […]).
Six- to eight-week old female BALB/c (H-2d) mice were purchased from Harlan Winkelmann GmbH (Borchen, Germany) and treated in accordance with local and EU directives. Groups each of 5 mice were immunized on day 1, 7 and 14 either with 40 μg of pure β-galactosidase (Boehringer, Mannheim, Germany), or with admixture of 1 or 0.5 μg of synthetic MALP-2. For the intranasal administration (i.n.), 10 μl was administered into each nostril, whereas for i.p., s.c. and i.d. injection β-galactosidase was resuspended with or without MALP-2 in respectively 400, 100 and 100 μl of PBS. 28 days after the first immunization, serum samples were taken and stored at −20° C. until the β-gal-specific antibodies were determined. Nunc-Immuno MaxiSorp assay plates with 96 wells (Nunc, Roskilde, Denmark) were coated with 100 μl of β-galactosidase (Boehringer, Mannheim, Germany) with 5 μg/ml in 0.05 M carbonate buffer (pH 8.2) per well. Serum dilutions with 1% BSA and 0.05% Tween-20 in PBS were added ([…]), and the plates were incubated at 37° C. for 24 hours. […]

[3] = test system: BALB/c (H-2d) mice; experiment: β-Galactosidase-specific T-cell proliferation of spleen and regional lymph node cells of immunized mice (Example 7); format: in vivo
Method: The cells were restimulated in vitro with various concentrations of soluble β-galactosidase for four days. The results are shown as average cpm subtracted from the background values for unstimulated cells from groups of three. The SEM is depicted by vertical lines.
Lymph nodes located below the lower jaw and the spleens were removed and put together for the analysis of the cellular immune responses. The cells were grown in RPMI 1640 supplemented by 10% fetal calf serum, 10 U/ml penicillin, 50 μg/ml streptomycin, 5×10^−5 M 2-mercaptoethanol and 1 mM L-glutamine (GIBCO BRL, Karlsruhe, Germany) and stored at 37° C. in a moist atmosphere with 5% CO2. The suspensions of lymph node and spleen cells were adjusted to 5×10^6 cells/ml in complete medium and put in a flat-bottomed 96-well microtiter plate (Nunc) with 100 μl/well, and the plates were incubated in the presence of various concentrations of soluble β-galactosidase for 4 days. Each concentration was tested in groups of three. During the last 18 hours of the incubation, 1 ρCi of [^3H]thymidine (Amersham International, Freiburg, Germany) was added to each well. The cells were then harvested on filter paper (Filtermat A; Wallac, Freiburg, Germany) using a cell harvester (Inotech, Wohlen, Switzerland), and the amount of incorporated [^3H]thymidine in the DNA of the proliferated cells was determined with the aid of a […] (Wallac 1450, Micro-Trilux). The results have been shown as the arithmetic mean of the uptake of [^3H]thymidine in cpm.

[4] = test system: BALB/c (H-2d) mice; format: in vivo; details: mice immunized i.n.; β-gal restimulation
[5] = test system: immunized animals; experiment: Tolerability and anti-adjuvant antibodies in immunized animals; details: after intranasal administration of MALP-2 as adjuvant

S-[2,3-bispalmitoyloxypropyl]cysteinyl-GNNDESNISFKEK ({S‑(2,3-bispalmitoyloxypropyl)Cys}-GNNDESNISFKEK) [MALP-2]
effect on expression of costimulating molecule CD80 in dendritic cells ([1]; 5 ng/ml MALP-2, 12 and 24 hours): slight, if present at all | expression of CD40 and costimulating molecule CD86 in dendritic cells ([1]; 5 ng/ml MALP-2, 12 and 24 hours, versus LPS positive control): not increased | activation of primary dendritic cells ([1]; 5 ng/ml MALP-2, compared with LPS 10 ng/ml): only a very weak activation | up regulation of CD40, CD80 and CD86 in dendritic cells ([1]; 10 ng/ml LPS or 5 ng/ml MALP-2): only a weak effect, or none | antibody responses compared with aluminum hydroxide as standard adjuvant for s.c. injection ([2]; 0.5 μg MALP-2, s.c., i.p., i.d., i.n.): at least as strong as (i.d.) or stronger | adjuvant effect on β-galactosidase-specific serum antibodies ([2]; 0.5 μg MALP-2 mixed with 40 μg β-galactosidase, s.c., i.p., i.d., i.n.): significant increase; also recorded: strong adjuvant effect | adjuvant effect on β-galactosidase-specific serum antibodies at higher dose ([2]; 1 μg MALP-2, i.p. and i.n.): abolition of the adjuvant effect | T-cell proliferation / cellular response compared with CTB as adjuvant ([3]; 0.5 μg MALP-2 versus 10 μg CTB, i.n., p<0.05): statistically significant (p<0.05) increase in T-cell proliferation; also recorded: distinctly higher proliferation | proliferation of lymph node and spleen cells after in vitro restimulation with β-galactosidase ([3]; i.n. immunization, day 31): efficient proliferation response | proliferation of spleen cells after in vitro restimulation with β-galactosidase ([3]; i.p. immunization, day 31): further increase in proliferation | IL-10 content in supernatants of spleen cells stimulated in vitro [4]: 2.2 ng/mL | anti-MALP-2 antibodies [5]: No anti-MALP-2 antibodies were detectable
